Test results as given in patent US20250019385A1, “SPIROCYCLIC ANNULATED 2-AMINO-3-CYANO THIOPHENES AND DERIVATIVES FOR THE TREATMENT OF CANCER” (Boehringer Ingelheim International GmbH, priority 2023, published 2025).
Where two headings read alike, the source gives them in different places.

Legend:
MKN1 cells = test: MKN1 CTG proliferation assay (120 h) (gastric cancer, wt amplified); assay type: cell-based; conditions: Homo sapiens, MKN-1
Method: (§1) MKN1 cells (JCRB0252) are dispensed into black 384-well plates, flat and clear bottom (Greiner, PNr. 781091) at a density of 200 cells per well in 60 μl RPMI-1640 ATCC-Formulation (Gibco #A10491)+10% FCS (fetal calf serum, HyClone, SH30084.03). Cells are incubated overnight at 37° C. in a humidified tissue culture incubator at 5% CO2. Compounds (10 mM stock in DMSO) are added at logarithmic dose series using the ECHO acoustic liquid handler system (Beckman Coulter), normalizing for added DMSO and including DMSO controls. All compound treatments are performed in technical duplicates. For the TO time point measurement, untreated cells are analyzed at the time of compound addition. Plates are incubated for 120 h, and cell viability is measured using CellTiter-Glo luminescent cell viability reagent (Promega product code G7570). Viability (stated as percent of control) is defined as relative luminescence units RLU of each well divided by the RLU of cells in DMSO controls. IC50 values are determined from viability measurements by non-linear regression using a four-parameter model.
(§2) IC50 values of representative compounds according to the invention measured with these assays in the indicated cell lines are presented in Table 46.

Ba/F3 cells KRAS G12C = test: Ba/F3 proliferation assay (KRAS G12C); assay type: cell-based; conditions: AlamarBlue viability
Method: (§3) Ba/F3 cells are ordered from DSMZ (ACC300, Lot17) and grown in RPMI-1640 (ATCC 30-2001)+10% FCS+10 ng/mL IL-3 at 37° C. in 5% […] atmosphere. Plasmids containing KRASG12 mutants (i.e. […], G12C, G12V) are obtained from GeneScript. To generate KRASG12-dependent Ba/F3 models, Ba/F3 cells are transduced with retroviruses containing vectors that harbor KRASG12 isoforms. Platinum-E cells (Cell Biolabs) are used for retrovirus packaging. Retrovirus is added to Ba/F3 cells. To ensure infection, 4 μg/mL polybrene is added and cells are spinfected. Infection efficiency is confirmed by measuring GFP-positive cells using a cell analyzer. Cells with an infection efficiency of 10% to 20% are further cultivated and puromycin selection with 1 μg/mL is initiated. As a control, parental Ba/F3 cells are used to show selection status. Selection is considered successful when parental Ba/F3 cells cultures died. To evaluate the transforming potential of KRASG12 mutations, the growth medium is no longer supplemented with IL-3. Ba/F3 cells harboring the empty vector are used as a control. Approximately ten days before conducting the experiments, puromycin is left out.
(§4) For proliferation assays, Ba/F3 cells are seeded into 384-well plates at 1.5×1 (M cells/60 μL in growth media (RPMI-1640+10% FCS). Compounds (10 mM stock in DMSO) are added at logarithmic dose series using the ECHO acoustic liquid handler system (Beckman Coulter), normalizing for added DMSO and including DMSO controls. All compound treatments are performed in technical duplicates. For the TO time point measurement, untreated cells are analyzed at the time of compound addition. Treated cells are incubated for 72 h at 37° C. with 5% CO2 and cell viability is measured in the PerkinElmer Envision Multimode Reader using AlamarBlue™ (ThermoFisher) viability stain. Viability (stated as percent of control) is defined as relative fluorescence units RFU of each well divided by the RFU of cells in DMSO controls. IC50 values are determined from viability measurements by non-linear regression using a four-parameter model.

LOVO cells = test: LOVO CTG proliferation assay (120 h) (CRC, G13D); assay type: cell-based
Method: as §1, with “LOVO” for “MKN1”, “(ATCC No. CCL-229)” for “(JCRB0252)”, “1000” for “200”, “DMEM (Sigma D6429)+10%” for “RPMI-1640 ATCC-Formulation (Gibco #A10491)+10%”
as §2

[1] = Metabolic (microsomal) stability assay, human liver microsomes (HLM); assay type: in vitro ADME; conditions: 1 μM test compound, predicted clearance as percent of liver blood flow
Method: The metabolic degradation of the test compound is assayed at 37° C. with pooled liver microsomes (mouse (MLM), rat (RLM) or human (HLM)). The final incubation volume of 48 μL per time point contains TRIS buffer (pH 7.5; 0.1 M), magnesium chloride (6.5 mM), microsomal protein (0.5 mg/mL for mouse/rat, 1 mg/mL for human specimens) and the test compound at a final concentration of 1 μM. Following a short preincubation period at 37° C., the reactions are initiated by addition of 12 μL beta-nicotinamide adenine dinucleotide phosphate, reduced form (NADPH, 10 mM) and terminated by transferring an aliquot into solvent after different time points (0, 5, 15, 30, 60 min). Additionally, the NADPH-independent degradation is monitored in incubations without NADPH, terminated at the last time point by addition of acetonitrile. The quenched incubations are pelleted by centrifugation (4,000 rpm, 15 min). An aliquot of the supernatant is assayed by LC-MS/MS to quantify the concentration of parent compound in the individual samples.
In vitro intrinsic clearance (CLint,in vitro) is calculated from the time course of the disappearance of the test drug during the microsomal incubation. Each plot is fitted to the first-order elimination rate constant as C(t)=C0*exp(−ke*t), where C(t) and C0 are the concentration of unchanged test drug at incubation time t and that at preincubation and ke is the disappearance rate constant of the unchanged drug. Subsequently, CLint, in vitro (μL min^−1·amount protein) values are converted to predicted CLint,in vivo (mL min^−1·kg^−1) from incubation parameters according to the equation CLint, in vivo=CLint, in vitro×(incubation volume (mL)/amount protein (mg))×(amount protein (mg)/g liver tissue)×(liver weight/body wt.).
For better across species comparison the predicted clearance is expressed as percent of the liver blood flow [% QH] (mL min^−1·kg^−1) in the individual species. In general, high stability (corresponding to low % QH) of the compounds across species is desired.

Ba/F3 cells KRAS G12V = test: Ba/F3 proliferation assay (KRAS G12V); assay type: cell-based; conditions: AlamarBlue viability
Method: as §3, §4

Ba/F3 cells KRAS G12D = test: Ba/F3 proliferation assay (KRAS G12D); assay type: cell-based; conditions: AlamarBlue viability
Method: as §3, §4

| IC50 (MKN1 cells) [nM] | IC50 (Ba/F3 cells KRAS G12C; Mus musculus, BaF3, 72 h) [nM] | IC50 (LOVO cells; Homo sapiens) [nM] | HLM QH [1] [%] | IC50 (Ba/F3 cells KRAS G12V; Mus musculus, BaF3, 72 h) [nM] | IC50 (Ba/F3 cells KRAS G12D; Mus musculus, BaF3, 72 h) [nM] | Compound | IC50 (Ba/F3 cells KRAS G12C; 72 h) [nM] | IC50 (LOVO cells) [nM] | IC50 (Ba/F3 cells KRAS G12V; 72 h) [nM] | IC50 (Ba/F3 cells KRAS G12D; 72 h) [nM] |
| --- | --- | --- | --- | --- | --- | --- | --- | --- | --- | --- |
| 300 | 15 | 5 | 65 | 8 | 36 | COCCn1c(=O)n([C@@H]2CCOC2)c2nc(-c3onc4c3CCC[C@@]43CCCc4sc(N)c(C#N)c43)nc(O[C@@H](C)[C@@H]3CCCN3C)c21 [I-1] |  |  |  |  |
| 95 | 41 | 3 | 73 | 21 | 90 | CO[C@H]1C[C@@H]([C@H](C)Oc2nc(-c3onc4c3CCC[C@@]43CCCc4sc(N)c(C#N)c43)nc3c2n(C)c(=O)n3[C@@H]2CCOC2)N(C)C1 [I-2] |  |  |  |  |
| 22 | 6 | 15 | 42 | 3 | 14 | CO[C@@H]1C[C@@H]([C@H](C)Oc2nc(-c3onc4c3CCC[C@@]43CCCc4sc(N)c(C#N)c43)nc3c2n(C)c(=O)n3[C@@H]2CCOC2)N(C)C1 [I-3] |  |  |  |  |
| 509 | 58 | 181 | 49 | 25 | 145 | C[C@H](Oc1nc(-c2onc3c2CCC[C@@]32CCCc3sc(N)c(C#N)c32)nc2c1n(C)c(=O)n2[C@@H]1CCOC1)[C@@H]1[C@H](F)CCN1C [I-4] |  |  |  |  |
| 113 | 31 | 29 | 65 | 14 | 68 | C[C@H](Oc1nc(-c2onc3c2CCC[C@@]32CCCc3sc(N)c(C#N)c32)nc2c1n(C)c(=O)n2[C@@H]1CCOC1)[C@@H]1[C@@H](F)CCN1C [I-5] |  |  |  |  |
| 90 | 4 | 3 | 73 | 2 | 9 | CO[C@H]1CCN(C)[C@@H]1[C@H](C)Oc1nc(-c2onc3c2CCC[C@@]32CCCc3sc(N)c(C#N)c32)nc2c1n(C)c(=O)n2[C@@H]1CCCOC1 [I-6] |  |  |  |  |
| 373 | 99 | 563 | <24 | 46 | 204 | COCCn1c(=O)n(C)c2c(O[C@@H](C)[C@@H]3CCCN3C)nc(-c3onc4c3CCC[C@@]43CCCc4sc(N)c(C#N)c43)nc21 [I-7] |  |  |  |  |
| 41 | 41 | 258 | <24 | 20 | 107 | C[C@H](Oc1nc(-c2onc3c2CCC[C@@]32CCCc3sc(N)c(C#N)c32)nc2c1[nH]c(=O)n2[C@@H]1CCOC1)[C@@H]1CCCN1C [I-8] |  |  |  |  |
| 135 | 38 | 90 | <24 | 20 | 46 | C[C@H](Oc1nc(-c2onc3c2CCC[C@@]32CCCc3sc(N)c(C#N)c32)nc2c1n(C)c(=O)n2[C@H]1CCOC1)[C@@H]1CCCN1C [I-9] |  |  |  |  |
| 334 | 310 | 541 |  | 128 | 344 | C[C@H](Oc1nc(-c2onc3c2CCC[C@@]32CCCc3sc(N)c(C#N)c32)nc2c1n(C)c(=O)n2[C@H]1CCCOC1)[C@@H]1CCCN1C [I-11] |  |  |  |  |
| 10 | 3 | 12 |  | 2 | 17 | C[C@@H]1COC[C@H](n2c(=O)n(C)c3c(O[C@@H](C)[C@@H]4CCCN4C)nc(-c4onc5c4CCC[C@@]54CCCc5sc(N)c(C#N)c54)nc32)C1 [I-44] |  |  |  |  |
|  | 1 |  | <24 |  | 1 | C[C@H](Oc1nc(-c2onc3c2CCC[C@@]32CCCc3sc(N)c(C#N)c32)nc2c1n(C)c(=O)n2[C@H]1CO[C@@H](C)C1)[C@@H]1CCCN1C [I-47] |  |  |  |  |
|  | 3 |  | 35 | 1 | 4 | C[C@H](Oc1nc(-c2onc3c2CCC[C@@]32CCCc3sc(N)c(C#N)c32)nc2c1n(C)c(=O)n2[C@H]1CO[C@@H](C)C1)[C@@H]1CC[C@H](C)N1C [I-50] |  |  |  |  |
|  | 5 |  | 74 | 2 | 26 | CO[C@H]1CCN(C)[C@@H]1[C@H](C)Oc1nc(-c2onc3c2CCC[C@@]32CCCc3sc(N)c(C#N)c32)nc2c1n(C)c(=O)n2[C@H]1COC[C@@H](C)C1 [I-51] |  |  |  |  |
|  | 8 |  | 46 | 3 | 28 | CO[C@@H]1C[C@@H]([C@H](C)Oc2nc(-c3onc4c3CCC[C@@]43CCCc4sc(N)c(C#N)c43)nc3c2n(C)c(=O)n3[C@H]2COC[C@@H](C)C2)N(C)C1 [I-52] |  |  |  |  |
| 2 | 1 | 3 | 36 |  | 2 | C[C@H](Oc1nc(-c2noc3c2CCC[C@@]32CCCc3sc(N)c(C#N)c32)nc2c1n(C)c(=O)n2[C@H]1CO[C@@H](C)C1)[C@@H]1CCCN1C [II-5] |  |  |  |  |
| 20 | 3 | 109 |  | 1 | 6 | C[C@H](Oc1nc(-c2noc3c2CCC[C@@]32CCCc3sc(N)c(C#N)c32)nc2c1CN(C1COC1)C[C@]21CCOC1)[C@@H]1CC[C@H](C)N1C [II-17] |  |  |  |  |
|  | 31 | 141 | 36 | 13 | 20 | C[C@H](Oc1nc(-c2noc3c2CCC[C@@]32CCCc3sc(N)c(C#N)c32)nc2c1CCC21CCOC1)[C@@H]1CCCN1C (stereo partly drawn) [II-18] |  |  |  |  |

| Compound | IC50 (MKN1 cells) [nM] | IC50 (Ba/F3 cells KRAS G12C; Mus musculus, BaF3, 72 h) [nM] | IC50 (LOVO cells; Homo sapiens) [nM] | HLM QH [1] [%] | IC50 (Ba/F3 cells KRAS G12V; Mus musculus, BaF3, 72 h) [nM] | IC50 (Ba/F3 cells KRAS G12D; Mus musculus, BaF3, 72 h) [nM] | IC50 (Ba/F3 cells KRAS G12C; 72 h) [nM] | IC50 (LOVO cells) [nM] | IC50 (Ba/F3 cells KRAS G12V; 72 h) [nM] | IC50 (Ba/F3 cells KRAS G12D; 72 h) [nM] |
| --- | --- | --- | --- | --- | --- | --- | --- | --- | --- | --- |
| C[C@H](Oc1nc(-c2noc3c2CCC[C@@]32CCCc3sc(N)c(C#N)c32)nc2c1CC[C@]21CNCCO1)[C@@H]1C[C@@H](F)CN1C [II-20] |  |  |  | 36 |  |  | 181 | 253 | 96 | 45 |
